Data reported in US10053468B2, “Heterocyclic compound” (TAKEDA PHARMACEUTICAL COMPANY LIMITED, priority 2013, dated 2018).
Where two headings read alike, the source gives them in different places.

Key:
[1] = target: T1, RORγt (Homo sapiens, UniProt P51449); assay: RORγt binding test using fluorescent-labeled cholesterol (TR-FRET); settings: read-out: Binding inhibitory rate of fluorescent-labeled cholesterol to RORγt at test compound 1 μM (%)
T1 sequence (P51449 1-497 isoform P51449-2): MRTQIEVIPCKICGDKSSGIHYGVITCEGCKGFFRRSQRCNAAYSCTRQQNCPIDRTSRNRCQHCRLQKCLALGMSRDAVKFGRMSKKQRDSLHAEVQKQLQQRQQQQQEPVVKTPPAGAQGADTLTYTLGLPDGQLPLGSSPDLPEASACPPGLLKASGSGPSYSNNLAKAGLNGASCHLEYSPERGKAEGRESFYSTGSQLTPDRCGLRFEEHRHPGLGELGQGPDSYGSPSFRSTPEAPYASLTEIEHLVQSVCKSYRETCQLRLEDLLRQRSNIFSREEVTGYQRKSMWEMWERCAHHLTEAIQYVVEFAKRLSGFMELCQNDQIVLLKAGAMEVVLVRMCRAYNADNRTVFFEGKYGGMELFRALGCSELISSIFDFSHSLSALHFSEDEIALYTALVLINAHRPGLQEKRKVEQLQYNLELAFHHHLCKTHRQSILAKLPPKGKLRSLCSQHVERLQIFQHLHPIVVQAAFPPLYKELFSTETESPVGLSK
How it was run: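 After 20 min at room temperature with His-tagged RORγt and BODIPY-cholesterol in pH 7.5 Tris buffer (NaCl, DTT, BSA), compound wells got terbium anti-His antibody for another 20 min. Time-resolved FRET was read with excitation 320 nm, emission 520 nm and a 100 µs delay.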

[2] = target: T1, RORγt; assay: RORγt binding test using fluorescent-labeled synthetic ligand (TR-FRET); settings: read-out: Binding inhibitory rate of fluorescent-labeled synthetic ligand to RORγt at test compound 1 μM (%)
How it was run: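 His-tagged RORγt (diluted to 240 nM) with compound, then fluorescent synthetic ligand (diluted to 12 μM), 20 min at room temperature, followed by Tb anti-His antibody (diluted to 8 nM), 20 min.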

[3] = target: T1, RORγt; assay: Cofactor recruitment test (Alpha Screen, biotinylated SRC-1 peptide); assay type: biochemical; settings: read-out: Signal value inhibitory rate at test compound 1 μM (%)
Protocol: Cofactor Recruitment Test
Cofactor recruitment test was performed by Alpha Screen (Histidine Detection Kit, PerkinElmer) method. First, a test compound was diluted with an assay buffer (50 mM Tris-HCl (pH 7.5), 50 mM KCl, 1 mM DTT, 0.1% BSA) and added to a 384 well plate by 5 μL. […] The mixture was stood in a dark place for 1 hr, and the signal value was measured by Envision (PerkinElmer).

[4] = target: T1, RORγt; assay: Jurkat reporter test (human IL-17 ROR response element luciferase, RORγt vector); assay type: cell-based; settings: read-out: Luminescence level inhibitory rate at test compound 3 μM (%)
How it was run: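 Luminescence (Bright-Glo, 10 min, RT) was measured after overnight compound treatment of electroporated Jurkat cells (1350 V, 10 ms interval, 3 pulses). The reaction medium was RPMI with 10% lipid-reduced FCS, 10 mM HEPES (pH 7.5) and 5 μM lovastatin.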

[5] = tested on: IL-17 production in human blood; assay: Effect on IL-17 production in human blood; assay type: cell-based; settings: 72 h, 10 μM test compound, IL-23 and Dynabeads stimulation, 3 days, read-out: Percent Inhibition at 10 μM (IL-17 production)
Protocol: Effect on IL-17 Production in Human Blood
The inhibitory effect of the test compound on IL-17 production in human blood was evaluated as follows. First, 150 μL of peripheral blood collected from healthy individuals using heparinized vacuum blood collection tubes was dispensed into each well of a 96-well plate (Corning), and 45 μL of RPMI 1640 medium (Gibco) containing 10% fetal bovine serum (FBS, Hyclone) and 30 μL of the test compound diluted with the medium was added to each well. The plate was then cultured for 30 min at 37° C. Cells were subsequently stimulated by adding 30 μL of 100 ng/mL human IL-23 (R&D) and 45 μL of Dynabeads Human (Invitrogen) to each well and culturing the plate for 3 days at 37° C. In wells without stimulation, 75 μL of RPMI 1640 medium containing 10% FBS was added instead of the IL-23 and Dynabeads solution. After culturing for 3 days, the culture supernatant was collected, and the amount of IL-17 in the supernatant was measured using an IL-17 ELISA kit (R&D).
The results of the above-described measurements (percent inhibition of IL-17 production with 10 μM of the test compound) are shown in Table 4.

[6] = tested on: IL-17A gene expression; assay: Effect on IL-23-induced cytokine expression in mice; assay type: in vivo, Balb/c mice; settings: Mus musculus, 30 min before and 8 hr after IL-23, versus the negative control group, read-out: Percent inhibition of IL-17A gene expression; for inhibition in vivo at 10 mg/kg: dose 10 mg/kg oral; for inhibition in vivo at 30 mg/kg: dose 30 mg/kg oral
Protocol: Effect on IL-23-induced Cytokine Expression in Mice
A mouse IL-23 solution (500 ng/10 μL, prepared by Takeda Pharmaceutical Company Limited) or PBS (10 μL, negative control group) was administered intradermally in the ear of Balb/c mice (Charles River Japan, male, 7 weeks old). Twenty-four hr after administration, the ear was resected under isoflurane anesthesia. The test compound was suspended in 0.5% methylcellulose and administered orally 30 min before and 8 hr after IL-23 administration.
RNA extraction from the ear tissue and quantitative PCR were performed as follows. Specifically, ear tissue 5 mm in diameter was punched from an area of the resected ear centering on the IL-23 injection site, and the tissue was immersed in RNAlater (QIAGEN) for at least 18 hr. The RNAlater-treated ear tissue was homogenized in 350 μL of RLT buffer (RNeasy mini kit, QIAGEN) and treated (55° C., 10 min) with Proteinase K (QIAGEN). Total RNA was then extracted according to the RNeasy mini kit protocol. The RNA thus obtained was then reverse transcribed into cDNA using the High-Capacity RNA-to-cDNA kit (Applied Biosystems), and the amount of each cytokine expressions was measured by real-time PCR (Viia7™, Applied Biosystems). The PCR buffer used was TaqMan Fast Advanced Master Mix (Applied Biosystems), and TaqMan Gene Expression Assays (Applied Biosystems) Mm00439618 ml (IL-17A) and 4352341E (β-actin) were used for cytokine gene detection. The IL-17A gene expression level was normalized to the R-actin gene expression level, and the percent inhibition of IL-17A gene expression with the test compound was then calculated.
The results obtained with the above-described method (percent inhibition of IL-17A gene expression with oral administration of the test compound) are shown in Table 5.

[7] = test compound 3 μM, Jurkat cells

SMILES	inhibition at 1 µM [1] [%]	inhibition at 1 µM [2] [%]	inhibition at 1 µM [3] [%]	inhibition at 3 µM [4, 7] [%]	inhibition at 10 µM [5] [%]	inhibition in vivo at 10 mg/kg [6] [%]	inhibition at 3 µM ([4]; Jurkat) [%]	inhibition in vivo at 30 mg/kg [6] [%]	inhibition in vivo at 100 mg/kg ([6]; dose 100 mg/kg oral) [%]
COCc1ccc2c(c1)CCN(C(=O)CCCC(=O)O)[C@H]2C(=O)Nc1cc(F)c(C(C)(C)C)c(F)c1 [Example 144, 5-((1R)-1-((4-tert-butyl-3,5-difluorophenyl)carbamoyl)-6-(methoxymethyl)-3,4-dihydroisoquinolin-2 (1H)-yl)-5-oxopentanoic acid]	101	101	97	101	86	–	–	–	–
COc1ccc2c(c1)CCN(C(=O)CCCC(=O)O)[C@H]2C(=O)Nc1cc(F)c([Si](C)(C)C)c(F)c1 [Example 82, 5-((1R)-1-((3,5-difluoro-4-(trimethylsilyl)phenyl)carbamoyl)-6-methoxy-3,4-dihydroisoquinolin-2(1H)-yl)-5-oxopentanoic acid]	–	–	–	–	75	85	–	–	–
CCOc1ccc2c(c1)CCN(C(=O)CC[C@H](C)C(=O)O)[C@H]2C(=O)Nc1cc(F)c2c(c1)CCC2(C)C [Example 266, (2S)-5-((1R)-6-ethoxy-1-((7-fluoro-1,1-dimethyl-2,3-dihydro-1H-inden-5-yl)carbamoyl)-3,4-dihydroisoquinolin-2(1H)-yl)-2-methyl-5-oxopentanoic acid]	–	–	–	–	88	–	–	–	–
CCOc1ccc2c(c1)CCN(C(=O)CCCC(=O)O)[C@H]2C(=O)Nc1cc(F)c([Si](C)(C)C)c(F)c1 [Example 179, 5-((1R)-1-((3,5-difluoro-4-(trimethylsilyl)phenyl)carbamoyl)-6-ethoxy-3,4-dihydroisoquinolin-2(1H)-yl)-5-oxopentanoic acid]	–	101	94	–	82	–	102	95	–
COc1ccc2c(n1)CCN(C(=O)CCCC(=O)O)[C@H]2C(=O)Nc1ccc([Si](C)(C)C)c(F)c1 [Example 140, 5-((5R)-5-((3-fluoro-4-(trimethylsilyl)phenyl)carbamoyl)-2-methoxy-7,8-dihydro-1,6-naphthyridin-6(5H)-yl)-5-oxopentanoic acid]	100	101	95	–	91	–	102	90	–
COc1ccc2c(n1)CCN(C(=O)N1CC(CC(=O)O)C1)[C@H]2C(=O)Nc1cc(F)c2c(c1)CCC2(C)C [Example 273, (1-(((5R)-5-((7-fluoro-1,1-dimethyl-2,3-dihydro-1H-inden-5-yl)carbamoyl)-2-methoxy-7,8-dihydro-1,6-naphthyridin-6(5H)-yl)carbonyl)azetidin-3-yl)acetic acid]	–	–	–	–	89	77	–	–	–
C[Si](C)(C)c1c(F)cc(NC(=O)[C@H]2c3ccc4c(c3CCN2C(=O)N2CC(CC(=O)O)C2)OCO4)cc1F [Example 272, (1-(((6R)-6-((3,5-difluoro-4-(trimethylsilyl)phenyl)carbamoyl)-8,9-dihydro[1,3]dioxolo[4,5-f]isoquinolin-7(6H)-yl)carbonyl)azetidin-3-yl)acetic acid]	–	102	101	–	93	86	100	–	–
COc1ccc2c(c1)CCN(C(=O)N1CC(CC(=O)O)C1)[C@H]2C(=O)Nc1cc(F)c([Si](C)(C)C)c(F)c1 [Example 260, (1-(((1R)-1-((3,5-difluoro-4-(trimethylsilyl)phenyl)carbamoyl)-6-methoxy-3,4-dihydroisoquinolin-2(1H)-yl)carbonyl)azetidin-3-yl)acetic acid]	–	102	95	–	89	76	101	–	–
COc1ccc2c(c1)CCN(C(=O)c1cc(O)no1)[C@H]2C(=O)Nc1cc(F)c2c(c1)CCC2(C)C [Example 68, (1R)-N-(7-fluoro-1,1-dimethyl-2,3-dihydro-1H-inden-5-yl)-2-((3-hydroxy-1,2-oxazol-5-yl)carbonyl)-6-methoxy-1,2,3,4-tetrahydroisoquinoline-1-carboxamide]	103	101	73	99	–	–	–	–	90
